Source: ChEMBL document CHEMBL1275493, “Anti-human immunodeficiency virus type 1 activities of antimicrobial peptides derived from human and bovine cathelicidins” (Antimicrob Agents Chemother, 2008)
Peptide text beside a SMILES is read from it.

Experiments:
[1] = tested on: Human immunodeficiency virus 1; test: Antiviral activity against Human immunodeficiency virus 1 3B infected in CEM-SS cells; assay type: functional, organism-based
[2] = Therapeutic index, TC50 for Human immunodeficiency virus 1 3B infected human CEM-SS cells to EC50 for immunodeficiency virus 1 3B; assay type: cell-based; details: CEM-SS cells infected with HIV-1 3B, read-out: TI
CEM-SS = test: Cytotoxicity against Human immunodeficiency virus 1 3B infected human CEM-SS cells; assay type: functional; details: read-out: TC50 (the source's name)

Row | EC50 [1] | Compound | selectivity ratio [2] | CC50 (CEM-SS)
1 | 0.91 µM | CC[C@H](C)[C@H](NC(=O)CN)C(=O)N[C@@H](CCCCN)C(=O)N[C@@H](CCC(N)=O)C(=O)N[C@@H](Cc1ccccc1)C(=O)N[C@@H](CCCCN)C(=O)N[C@@H](CCCNC(=N)N)C(=O)N[C@H](C(=O)N[C@H](C(=O)N[C@@H](CCC(N)=O)C(=O)N[C@@H](CCCNC(=N)N)C(=O)N[C@H](C(=O)N[C@@H](CCCCN)C(=O)N[C@@H](CC(=O)O)C(=O)N[C@@H](Cc1ccccc1)C(=O)N[C@@H](CC(C)C)C(=O)N[C@@H](CCCNC(=N)N)C(=O)N[C@@H](CC(N)=O)C(=O)N[C@@H](CC(C)C)C(=O)N[C@H](C(=O)O)C(C)C)[C@@H](C)CC)C(C)C)[C@@H](C)CC (H-GIKQFKRIVQRIKDFLRNLV-OH) [listing 1 of 2 here] | 15.1 | –
2 | > 35.4 µM | CC[C@H](C)[C@H](NC(=O)[C@H](CCCCN)NC(=O)[C@H](CCC(=O)O)NC(=O)[C@H](CCCCN)NC(=O)[C@H](CO)NC(=O)[C@H](CCCCN)NC(=O)[C@H](CCCNC(=N)N)NC(=O)[C@H](CC(C)C)NC(=O)[C@H](CC(C)C)NC(=O)[C@H](CC(=O)O)NC(=O)CNC(=O)[C@H](CC(C)C)NC(=O)[C@@H](N)CC(C)C)C(=O)NCC(=O)N[C@@H](CCCCN)C(=O)N[C@@H](CCC(=O)O)C(=O)N[C@@H](Cc1ccccc1)C(=O)N[C@@H](CCCCN)C(=O)N[C@@H](CCCNC(=N)N)C(=O)N[C@H](C(=O)N[C@H](C(=O)N[C@@H](CCC(N)=O)C(=O)N[C@@H](CCCNC(=N)N)C(=O)O)C(C)C)[C@@H](C)CC (H-LLGDLLRKSKEKIGKEFKRIVQR-OH) | – | > 35.4 µM
3 | – | CC[C@H](C)[C@H](NC(=O)CN)C(=O)N[C@@H](CCCCN)C(=O)N[C@@H](CCC(=O)O)C(=O)N[C@@H](Cc1ccccc1)C(=O)N[C@@H](CCCCN)C(=O)N[C@@H](CCCNC(=N)N)C(=O)N[C@@H](CCC(=O)O)C(=O)N[C@@H](Cc1ccccc1)C(=O)N[C@@H](CCC(N)=O)C(=O)N[C@@H](CCCNC(=N)N)C(=O)N[C@H](C(=O)N[C@@H](CCCCN)C(=O)N[C@@H](CC(=O)O)C(=O)N[C@@H](Cc1ccccc1)C(=O)N[C@@H](CC(C)C)C(=O)N[C@@H](CCCNC(=N)N)C(=O)N[C@@H](CC(N)=O)C(=O)N[C@@H](CC(C)C)C(=O)N[C@H](C(=O)O)C(C)C)[C@@H](C)CC (H-GIKEFKREFQRIKDFLRNLV-OH) | – | 9.9 µM
4 | > 58.1 µM | CC[C@H](C)[C@H](NC(=O)[C@H](CCCCN)NC(=O)[C@H](CC(=O)O)NC(=O)[C@H](Cc1ccccc1)NC(=O)[C@H](CC(C)C)NC(=O)[C@@H](N)CCCNC(=N)N)C(=O)N[C@@H](CCCNC(=N)N)C(=O)N[C@@H](CCC(N)=O)C(=O)N[C@H](C(=O)N[C@H](C(=O)N[C@@H](CCCNC(=N)N)C(=O)N[C@@H](CCCCN)C(=O)N[C@@H](Cc1ccccc1)C(=O)O)[C@@H](C)CC)C(C)C (H-RLFDKIRQVIRKF-OH) | – | 33.7 µM
5 | – | CC[C@H](C)[C@H](NC(=O)CN)C(=O)N[C@@H](CCCCN)C(=O)N[C@@H](CCC(N)=O)C(=O)N[C@@H](Cc1ccccc1)C(=O)N[C@@H](CCCCN)C(=O)N[C@@H](CCCNC(=N)N)C(=O)N[C@H](C(=O)N[C@H](C(=O)N[C@@H](CCC(N)=O)C(=O)N[C@@H](CCCNC(=N)N)C(=O)N[C@H](C(=O)N[C@@H](CCCCN)C(=O)N[C@@H](CC(=O)O)C(=O)N[C@@H](Cc1ccccc1)C(=O)N[C@@H](CC(C)C)C(=O)N[C@@H](CCCNC(=N)N)C(=O)N[C@@H](CC(N)=O)C(=O)N[C@@H](CC(C)C)C(=O)N[C@H](C(=O)O)C(C)C)[C@@H](C)CC)C(C)C)[C@@H](C)CC (H-GIKQFKRIVQRIKDFLRNLV-OH) [listing 2 of 2 here] | – | 13.7 µM
6 | – | CC[C@H](C)[C@H](NC(=O)CN)C(=O)N[C@@H](CCCCN)C(=O)N[C@@H](CCC(=O)O)C(=O)N[C@@H](Cc1c[nH]c2ccccc12)C(=O)N[C@@H](CCCCN)C(=O)N[C@@H](CCCNC(=N)N)C(=O)N[C@H](C(=O)N[C@H](C(=O)N[C@@H](CCC(N)=O)C(=O)N[C@@H](CCCNC(=N)N)C(=O)N[C@H](C(=O)N[C@@H](CCCCN)C(=O)N[C@@H](CC(=O)O)C(=O)N[C@@H](Cc1ccccc1)C(=O)N[C@@H](CC(C)C)C(=O)N[C@@H](CCCNC(=N)N)C(=O)N[C@@H](CC(N)=O)C(=O)N[C@@H](CC(C)C)C(=O)N[C@H](C(=O)O)C(C)C)[C@@H](C)CC)C(C)C)[C@@H](C)CC (H-GIKEWKRIVQRIKDFLRNLV-OH) [listing 1 of 2 here] | – | 23.6 µM
7 | > 47.5 µM | CC[C@H](C)[C@H](NC(=O)[C@H](CCCNC(=N)N)NC(=O)[C@H](CCCCN)NC(=O)[C@H](Cc1ccccc1)NC(=O)CN)C(=O)N[C@H](C(=O)N[C@@H](CCC(N)=O)C(=O)N[C@@H](CCCNC(=N)N)C(=O)N[C@@H](C(=O)N[C@@H](CCCCN)C(=O)N[C@@H](CC(=O)O)C(=O)N[C@@H](Cc1ccccc1)C(=O)N[C@H](CC(C)C)C(=O)N[C@@H](CCCNC(=N)N)C(=O)N[C@@H](CC(N)=O)C(=O)N[C@@H](CC(C)C)C(=O)N[C@H](C(=O)O)C(C)C)[C@@H](C)CC)C(C)C | – | > 47.5 µM
8 | > 49.6 µM | CC(C)C[C@H](NC(=O)[C@H](CCCCN)NC(=O)[C@H](CCCCN)NC(=O)[C@H](Cc1ccccc1)NC(=O)[C@H](CCCCN)NC(=O)[C@H](CCCCN)NC(=O)[C@H](CCCNC(=N)N)NC(=O)[C@H](Cc1ccccc1)NC(=O)[C@H](CCCNC(=N)N)NC(=O)[C@H](CCCCN)NC(=O)[C@H](Cc1ccccc1)NC(=O)[C@H](CCCNC(=N)N)NC(=O)CN)C(=O)N[C@@H](Cc1ccccc1)C(=O)N[C@@H](CCCCN)C(=O)O (H-GRFKRFRKKFKKLFK-OH) | – | > 49.6 µM
9 | 7.4 µM | CC[C@H](C)[C@H](NC(=O)CN)C(=O)N[C@@H](CCCCN)C(=O)N[C@@H](CCC(=O)O)C(=O)N[C@@H](Cc1c[nH]c2ccccc12)C(=O)N[C@@H](CCCCN)C(=O)N[C@@H](CCCNC(=N)N)C(=O)N[C@H](C(=O)N[C@H](C(=O)N[C@@H](CCC(N)=O)C(=O)N[C@@H](CCCNC(=N)N)C(=O)N[C@H](C(=O)N[C@@H](CCCCN)C(=O)N[C@@H](CC(=O)O)C(=O)N[C@@H](Cc1ccccc1)C(=O)N[C@@H](CC(C)C)C(=O)N[C@@H](CCCNC(=N)N)C(=O)N[C@@H](CC(N)=O)C(=O)N[C@@H](CC(C)C)C(=O)N[C@H](C(=O)O)C(C)C)[C@@H](C)CC)C(C)C)[C@@H](C)CC (H-GIKEWKRIVQRIKDFLRNLV-OH) [listing 2 of 2 here] | 3.2 | –
10 | > 47.5 µM | CC[C@H](C)[C@H](NC(=O)[C@H](CCCNC(=N)N)NC(=O)[C@H](CCCCN)NC(=O)[C@H](Cc1ccccc1)NC(=O)CN)C(=O)N[C@H](C(=O)N[C@@H](CCC(N)=O)C(=O)N[C@@H](CCCNC(=N)N)C(=O)N[C@@H](C(=O)N[C@@H](CCCCN)C(=O)N[C@@H](CC(=O)O)C(=O)N[C@@H](Cc1ccccc1)C(=O)N[C@@H](CC(C)C)C(=O)N[C@@H](CCCNC(=N)N)C(=O)N[C@@H](CC(N)=O)C(=O)N[C@@H](CC(C)C)C(=O)N[C@H](C(=O)O)C(C)C)[C@@H](C)CC)C(C)C | – | 22.7 µM
11 | > 40.5 µM | CC[C@H](C)[C@H](NC(=O)[C@H](CCCNC(=N)N)NC(=O)[C@H](CCC(N)=O)NC(=O)[C@@H](NC(=O)[C@@H](NC(=O)[C@H](CCCNC(=N)N)NC(=O)[C@@H](N)CCCCN)[C@@H](C)CC)C(C)C)C(=O)N[C@@H](CCCCN)C(=O)N[C@@H](CC(=O)O)C(=O)N[C@@H](Cc1ccccc1)C(=O)N[C@@H](CC(C)C)C(=O)N[C@@H](CCCNC(=N)N)C(=O)N[C@@H](CC(N)=O)C(=O)N[C@@H](CC(C)C)C(=O)N[C@H](C(=O)N1CCC[C@H]1C(=O)N[C@@H](CCCNC(=N)N)C(=O)N[C@H](C(=O)N[C@@H](CCC(=O)O)C(=O)N[C@@H](CO)C(=O)O)[C@@H](C)O)C(C)C (H-KRIVQRIKDFLRNLVPRTES-OH) | – | > 40.5 µM
12 | > 63.5 µM | CC[C@H](C)[C@H](NC(=O)[C@H](CCCNC(=N)N)NC(=O)[C@H](CCC(N)=O)NC(=O)[C@@H](NC(=O)[C@@H](NC(=O)[C@H](CCCNC(=N)N)NC(=O)[C@@H](N)CCCCN)[C@@H](C)CC)C(C)C)C(=O)N[C@@H](CCCCN)C(=O)N[C@@H](CC(=O)O)C(=O)N[C@@H](Cc1ccccc1)C(=O)N[C@@H](CC(C)C)C(=O)N[C@@H](CCCNC(=N)N)C(=O)O (H-KRIVQRIKDFLR-OH) | – | > 63.5 µM
13 | > 44 µM | CC[C@H](C)[C@H](NC(=O)[C@H](CCCCN)NC(=O)[C@H](CCCCN)NC(=O)[C@H](Cc1ccccc1)NC(=O)[C@H](CC(C)C)NC(=O)[C@H](CCCCN)NC(=O)[C@H](CCCCN)NC(=O)[C@H](CC(C)C)NC(=O)[C@H](CCCCN)NC(=O)[C@H](CCCCN)NC(=O)[C@H](CCCNC(=N)N)NC(=O)[C@@H](NC(=O)[C@H](CCCNC(=N)N)NC(=O)[C@H](CCCCN)NC(=O)[C@H](Cc1ccccc1)NC(=O)[C@H](CCCNC(=N)N)NC(=O)CN)[C@@H](C)CC)C(=O)N[C@@H](CO)C(=O)O (H-GRFKRIRKKLKKLFKKIS-OH) [listing 1 of 2 here] | – | –
14 | – | CC[C@H](C)[C@H](NC(=O)[C@H](CCCCN)NC(=O)[C@H](CCCCN)NC(=O)[C@H](Cc1ccccc1)NC(=O)[C@H](CC(C)C)NC(=O)[C@H](CCCCN)NC(=O)[C@H](CCCCN)NC(=O)[C@H](CC(C)C)NC(=O)[C@H](CCCCN)NC(=O)[C@H](CCCCN)NC(=O)[C@H](CCCNC(=N)N)NC(=O)[C@@H](NC(=O)[C@H](CCCNC(=N)N)NC(=O)[C@H](CCCCN)NC(=O)[C@H](Cc1ccccc1)NC(=O)[C@H](CCCNC(=N)N)NC(=O)CN)[C@@H](C)CC)C(=O)N[C@@H](CO)C(=O)O (H-GRFKRIRKKLKKLFKKIS-OH) [listing 2 of 2 here] | – | 2.79 µM
15 | > 40.6 µM | CC[C@H](C)[C@H](NC(=O)CN)C(=O)N[C@@H](CCCCN)C(=O)N[C@@H](CCC(=O)O)C(=O)N[C@@H](C(=O)N[C@@H](CCCCN)C(=O)N[C@@H](CCCNC(=N)N)C(=O)N[C@H](C(=O)N[C@H](C(=O)N[C@@H](CCC(N)=O)C(=O)N[C@@H](CCCNC(=N)N)C(=O)N[C@H](C(=O)N[C@@H](CCCCN)C(=O)N[C@@H](CC(=O)O)C(=O)N[C@@H](Cc1ccccc1)C(=O)N[C@@H](CC(C)C)C(=O)N[C@@H](CCCNC(=N)N)C(=O)N[C@@H](CC(N)=O)C(=O)N[C@@H](CC(C)C)C(=O)N[C@H](C(=O)O)C(C)C)[C@@H](C)CC)C(C)C)[C@@H](C)CC)c1ccccc1 | – | 7.3 µM
